Series [1] deals with S. flexneri 2457T. The experiment in a line: microbe, parasite or virus in culture. The class given is cell-based, Shigella flexneri. As to conditions: Shigella flexneri, 2457T. On the procedure: Bacterial inoculum without drug was used as positive control. The bacteria inoculum (1 × 10^5 CFU/mL) for the assay was prepared by diluting a log phase incubated at 37 °C for 3–4 hr. Mueller Hinton agar plates were prepared containing 4xMIC and 10xMIC and inoculated with different concentrations of bacteria (1 × 10^9, 1 × 10^8, and 1 × 10^7 CFU/mL). Plates were prepared in duplicate and incubated overnight at 37 °C. The frequency of spontaneous resistant mutants was calculated by using the formula: FoR = resistant CFUs/inoculum CFUs. The mean of the two plates was reported.

A further series relates to Shigella flexneri 2457T. The experiment in a line: Resazurin growth inhibition, dose response (IC50/IC90) in Müller Hinton medium. The class given is cell-based. The settings on record: ATCC700930. As for the experimental part: We developed a high-throughput screening (HTS) method to identify compounds that could inhibit the growth of Shigella flexneri 2457T in Müller Hinton medium (Sigma Aldrich, UK). We adapted a resazurin reduction protocol from Franzblau et al. as surrogate readout for bacterial viability because it provided a stable signal, a low interference level, and was cost effective ([Franzblau et al., 1998]). Prior to the day of experimentation, one colony was used to inoculate 50 mL Mueller Hinton medium, and the culture was incubated overnight at 37 °C. The next day, 500 μL of the bacterial culture were inoculated into 50 mL fresh Mueller Hinton medium and bacterial growth was measured periodically at 600 nm. When the culture reached OD = 0.4–0.6, the inoculum was diluted to 1 × 10^6 CFU/mL; this bacterial suspension was added to compound pre-dispensed plates for screening.
The assay was performed in 1536-well polystyrene assay plates (HiBase, μClear, Greiner Bio‐One) and used to screen ~1.7 million compounds from (a) GSK naïve chemical diversity, (b) GSK antibacterial programs, and (c) marketed antimicrobial agents. All commercially available chemicals were purchased from either Sigma Aldrich, UK, AK Scientific, or Fischer Chemicals. The GSK compound screening set was sub-selected from the 8 million compound GSK collection using the principles described by Harper and co-workers ([Harper et al., 2004]). The process to generate the structural filters to remove compounds bearing undesirable/reactive chemotypes and/or non-developable physicochemical properties has been described previously by [Chakravorty et al., 2018]. […]. The set of marketed antibacterial agents included most commercial antimicrobial agents.
For screening, plates were prepared by dispensing 50 nl of compound from master plates at 1 mM in each well using a LabCyte Echo system. The final assay volume was 5 μl and the final compound concentration was 10 µM. The 11th and 12th columns were growth controls containing 50 nL of DMSO. The 34th and 35th columns contained 50 nL of Moxifloxacin at 20 μM as negative growth controls. Five µl of bacterial inoculum was dispensed into compound pre-dispensed plates using a Multidrop Combi dispenser (Thermo Scientific). Plates were agitated for 10 s to ensure mixing and incubated at 37 °C overnight (16–17 hr). Following overnight culture, 2 µl resazurin solution (Resazurin tablets for milk testing, BDH) was added to each well and incubated at room temperature in the dark for 3 hr. Fluorescence intensity was measured using an Envision plate reader (PerkinElmer). […] Data were analysed using Base software and statistical cut-off analysis was used for ‘hit’ selection following a standard GSK protocol. To calculate the statistical cut-off, percentage growth inhibition was calculated per well according to the plate controls, these values were aggregated to calculate the robust mean and standard deviation (SD) of the distribution. The robust mean was calculated starting from the median and the MAD of the distribution with an iterative process that aimed to remove outliers. Once the mean and SD were calculated, all compounds above mean + 3 SD were selected as primary hits.
After the initial screen, we generated fresh samples of the primary compound hits and tested them in duplicate against S. flexneri 2457T at 10 μM to confirm activity. The confirmed hit list was narrowed by applying the following filters: a 30% cut-off value, absence of undesirable structural features (e.g. electrophiles, peroxides, and Michael acceptors) and reduced physicochemical risk (maximum five aromatic rings and PFI <8)([Leeson and Young, 2015]). […].

Series [2] relates to S. flexneri 2457T. The class given is in vivo. The settings on record: mice, 40 mg/kg PO, 24 hr post infection, limit of quantification 80.
A further series has as its system S. sonnei 02–1181. The series can be described thus: Solid medium test at 10 µM and dose-response MIC against MDR clinical isolate. The class given is cell-based, Shigella sonnei. On the procedure:
(§1) The confirmed hit list was narrowed by applying the following filters: a 30% cut-off value, absence of undesirable structural features (e.g. electrophiles, peroxides, and Michael acceptors) and reduced physicochemical risk (maximum five aromatic rings and PFI <8)([Leeson and Young, 2015]). […] Briefly, the selected bacteria were cultured on the Luria-Bertani agar overnight at 37 °C (Campylobacter isolates were grown in 2.5% Laked Horse Blood cation-adjusted Mueller Hinton medium (CAMHB, Sigma Aldrich) and incubated in microaerophilic conditions (10% CO2, 5% O2 and 85% N2) at 42 °C); colonies were added to sterile PBS to form 0.5 McFarland solutions. All chemical testing was performed at an initial concentration of 10 μM. Bacterial suspensions were evenly spread on Mueller-Hinton agar by sterile cotton swabs (Medical Wire – MWE). […] Plates were incubated overnight at 37 °C. The activity of the chemical was recorded as being active (yes) or non-active (no) for each of the tested chemicals.
(§2) MICs were evaluated using the micro dilution assay in Müller Hinton broth using 1 mM chemical stock solutions, and a final concentration of 5 × 10^5 CFU/mL bacteria. Twofold serial dilutions were prepared in 96-well plates at concentration ranging from 1 μM to 7.8 nM. 100 μL bacteria were added and incubated at 37 °C overnight; 10 μl of each solution was dropped onto Luria-Bertani agar and incubated overnight at 37 °C for the detection of bacterial growth. Results were interpreted as minimal concentration necessary to inhibit growth.

The next series has as its system S. flexneri EG478. The series is described as above. The class given is cell-based, Shigella flexneri. The settings on record: for bactericidal activity: MDR clinical isolate S. flexneri EG478; for MIC range: range over S. flexneri EG478 and S. sonnei 02-1181. As for the experimental part: as §1, §2
A short description of series [3]: Intestinal distribution by MALDI imaging in mice. The class given is in vivo. On the procedure: One animal was euthanised at 0.25, 0.5, 1, and 4 hr respectively and 2.5–3 cm sections of the intestine (duodenum, jejunum, ileum, caecum, and colon) were collected and frozen at –80 °C. For quantitative LCMS analysis of intestine homogenate, samples were thawed at ambient temperature, mixed with water (1:1) and homogenised by turrax (10 sec). Subsequently, 20 µL of homogenate were mixed with 200 µl of ACN: MeOH (80:20) and filtered using 0.2 µm filter plate (Whatman). LCMS analysis was performed as described in previous section. For MALDI imaging, 50 mm of the central part of each intestinal section were cut and mounted in a sample disc on dry ice with a solution of 1% methylcellulose (Sigma Aldrich, UK). Next, tissue sections of 12 µm (sagital sections) were obtained using a cryostat (Leica CM3600; Leica Microsystems Inc, Wetzlar, Germany) at –20 °C and collected in conductive-coated slides for MALDI Imaging (Bruker Daltonic). After the ‘MALDI’ section was obtained a consecutive section for histology was taken. Prior to matrix coating, samples for MALDI were optical scanned in a PathScanner. The matrix deposition was conducted in a sprayer ImagePrep System (Bruker Daltonic) which uses vibrational vaporisation technology. As matrix solution α-CHCA (α-Cyano-4-hydroxycinnamic acid (Sigma Aldrich) dissolved in 70:30 methanol/water (v/v) containing 0.2% TFA at 7 mg/mL was used. MALDI MSI data were obtained using a Bruker UltrafleXtream MALDI TOF/TOF (Bruker Daltonic, Germany)).
Both compounds were analysed in positive mode using a LIFT method. For Tebipenem, parent compound was 384.32 and the detection mass window between m/z 0–400. 298.164 were the most intensive fragment. […] We used a laser shut at 85% power with a 50 μm step size, 100 times at raster spot in random wak mode. FlexImaging 4.1(bruker Daltoninc, Germany) were used for the data visualisation. […]
MALDI Imaging is not a quantitative technique, therefore, the colour scale of images is relative to the maximum intensity (100 corresponds with the maximal signa in each slide). […]

Series [4] relates to S. flexneri 2457T. The experiment in a line: Gnotobiotic piglet Shigella infection model, efficacy. As to conditions: piglets. The class given is in vivo.

In brackets after ≈: the same amount, converted by molar mass.

Broadly, the IC90 is the point of the concentration-response curve where the effect stands at 90%. Lower therefore signals greater potency.

In the series with S. flexneri 2457T [1], `CC1(C)S[C@@H]2[C@H](NC(=O)[C@H](N)c3ccccc3)C(=O)N2[C@H]1C(=O)O` [Ampicilin] registered an MIC of 7.5 µM (≈ 2.62 µg/mL).
In the series with Shigella flexneri 2457T, `CC[C@H]1OC(=O)[C@H](C)[C@@H](O[C@H]2C[C@@](C)(OC)[C@@H](O)[C@H](C)O2)[C@H](C)[C@@H](O[C@@H]2O[C@H](C)C[C@H](N(C)C)[C@H]2O)[C@](C)(O)C[C@@H](C)CN(C)[C@H](C)[C@@H](O)[C@]1(C)O` [Azithromycin] returned an IC90 of 7.49 µg/mL (≈ 10 µM).
Turning to `CO/N=C(\C(=O)N[C@@H]1C(=O)N2C(C(=O)O)=C(CSc3nc(=O)c(=O)[nH]n3C)CS[C@H]12)c1csc(N)n1` [Ceftriaxone], the MIC against S. flexneri 2457T [1] came to 0.2 µM (≈ 0.111 µg/mL). In the series with Shigella flexneri 2457T, this compound showed an IC90 of 0.067 µg/mL (≈ 0.121 µM).
As for `O=C(O)c1cn(C2CC2)c2cc(N3CCNCC3)c(F)cc2c1=O` [Ciprofloxacin], in the series with S. flexneri 2457T [2], the “S. flexneri CFUs in gastrointestinal tissue” value was less than 80 CFU. The compound further yielded an MIC against S. flexneri 2457T [1] of 0.06 µM (≈ 0.0199 µg/mL). The compound further showed an IC90 with Shigella flexneri 2457T of 0.02 µg/mL (≈ 0.0604 µM).
Regarding `C[C@@H](O)[C@H]1C(=O)N2C(C(=O)O)=C(S[C@@H]3CN[C@H](C(=O)Nc4cccc(C(=O)O)c4)C3)[C@H](C)[C@H]12` [Ertapenem], the bactericidal activity entry with S. sonnei 02–1181 and with S. flexneri EG478 was “greatest bactericidal activity” in each case. Further, the MIC range in the series on S. flexneri EG478 is 0.04 to 0.15 µg/mL.
Consider `C[C@@H](O)[C@H]1C(=O)N2C(C(=O)O)=C([C@H]3CCCO3)S[C@H]12` [Faropenem], for which the MIC range against S. flexneri EG478 lay within 2.5 to 6.25 µg/mL.
In the series with S. flexneri 2457T [1], `CC1(C)S[C@@H]2[C@H](/N=C/N3CCCCCC3)C(=O)N2[C@H]1C(=O)O` [Mecillinam] came in with an MIC of 0.2 µM (≈ 0.0651 µg/mL). Also, the 90% effect level in the series with Shigella flexneri 2457T (IC90) was put at 0.058 µg/mL (≈ 0.178 µM).
Take `C[C@@H](O)[C@H]1C(=O)N2C(C(=O)O)=C(S[C@@H]3CN[C@H](C(=O)N(C)C)C3)[C@H](C)[C@H]12` [Meropenem]: the bactericidal activity entry in the series with S. sonnei 02–1181 was “greatest bactericidal activity”. In addition, in the series on S. flexneri EG478, the bactericidal activity result is reported as “greatest bactericidal activity” and the MIC range turned out to be 0.15 µg/mL (≈ 0.391 µM).
Regarding `COc1c(N2C[C@@H]3CCCN[C@@H]3C2)c(F)cc2c(=O)c(C(=O)O)cn(C3CC3)c12` [Moxifloxacin], the MIC against S. flexneri 2457T [1] is 0.2 µM (≈ 0.0803 µg/mL).
In the series on S. flexneri 2457T [1], `CO[C@H]1/C=C/O[C@@]2(C)Oc3c(C)c(O)c4c(O)c(c(/C=N/N5CCN(C)CC5)c(O)c4c3C2=O)NC(=O)/C(C)=C\C=C\[C@H](C)[C@H](O)[C@@H](C)[C@@H](O)[C@@H](C)[C@H](OC(C)=O)[C@@H]1C` [Rifampicin] had an MIC of 3.7 µM (≈ 3.04 µg/mL).
In the case of `C[C@@H](O)[C@H]1C(=O)N2C(C(=O)OCOC(=O)C(C)(C)C)=C(SC3CN(C4=NCCS4)C3)[C@H](C)[C@H]12` [Tebipenem pivoxil], in series [3] (60 min after oral pro-drug), the “MALDI detection in the intestinal lumen” value was “not detectable in the lumen”. For the same compound, the “MALDI detection within enterocytes” value in series [3] (after oral pro-drug) is on record as “not detected within enterocytes”. Moreover, in the series on S. flexneri 2457T [4] (day six post infection), the “histopathology of the large intestine vs placebo” value is “marked reduction in intestinal lesions and inflammation”. The “CFU/g Shigella in stool” value in the series with S. flexneri 2457T [4] (single dose given 24 hr after infection, from 1 × 10^7, within 24 hr) was “zero”.
